Legend:
SIRT1 = molecular target: T1, SIRT1 (Homo sapiens, UniProt Q96EB6); assay: Fluorescence polarization or mass spectrometry based assay to identify modulators of SIRT1 activity; assay type: biochemical; conditions: activation of SIRT1 (Table 3); read-out: ED50 (the source's name);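 note: deacetylation of a fluorophore-tagged p53-derived acetyl peptide by SIRT1, detected as fluorescence polarization after trypsin cleavage and streptavidin binding, compounds tested at 11 doses from 0.7 to 100 µM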
T1 sequence (Q96EB6 1-747): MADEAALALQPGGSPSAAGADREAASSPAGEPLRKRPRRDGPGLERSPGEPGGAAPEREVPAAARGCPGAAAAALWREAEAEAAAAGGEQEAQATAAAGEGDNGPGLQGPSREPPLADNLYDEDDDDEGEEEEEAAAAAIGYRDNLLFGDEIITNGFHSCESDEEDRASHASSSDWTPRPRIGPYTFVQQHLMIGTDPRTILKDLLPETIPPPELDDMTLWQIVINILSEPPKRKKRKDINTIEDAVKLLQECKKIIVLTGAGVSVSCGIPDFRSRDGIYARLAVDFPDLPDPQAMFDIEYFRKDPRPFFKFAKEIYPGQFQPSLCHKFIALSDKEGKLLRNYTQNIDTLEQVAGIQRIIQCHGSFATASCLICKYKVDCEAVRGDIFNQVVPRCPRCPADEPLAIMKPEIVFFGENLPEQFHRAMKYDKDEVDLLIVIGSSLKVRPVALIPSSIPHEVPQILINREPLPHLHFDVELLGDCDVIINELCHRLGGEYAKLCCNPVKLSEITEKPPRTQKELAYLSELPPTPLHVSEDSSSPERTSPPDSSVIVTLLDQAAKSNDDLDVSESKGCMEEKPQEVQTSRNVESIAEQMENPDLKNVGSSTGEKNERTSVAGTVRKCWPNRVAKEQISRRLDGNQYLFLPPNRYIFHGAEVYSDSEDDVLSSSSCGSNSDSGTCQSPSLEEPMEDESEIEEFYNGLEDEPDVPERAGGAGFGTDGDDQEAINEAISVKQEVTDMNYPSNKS

human SIRT3 = molecular target: T2, human SIRT3 (Homo sapiens, UniProt Q9NTG7); assay: Fluorescence polarization assay to identify modulators of SIRT3 activity; assay type: biochemical; conditions: for EC50: activation of SIRT3 (Table 5), read-out: ED50 (the source's name); for IC50: inhibition of SIRT3 (Table 6)
T2 sequence (Q9NTG7 102-399): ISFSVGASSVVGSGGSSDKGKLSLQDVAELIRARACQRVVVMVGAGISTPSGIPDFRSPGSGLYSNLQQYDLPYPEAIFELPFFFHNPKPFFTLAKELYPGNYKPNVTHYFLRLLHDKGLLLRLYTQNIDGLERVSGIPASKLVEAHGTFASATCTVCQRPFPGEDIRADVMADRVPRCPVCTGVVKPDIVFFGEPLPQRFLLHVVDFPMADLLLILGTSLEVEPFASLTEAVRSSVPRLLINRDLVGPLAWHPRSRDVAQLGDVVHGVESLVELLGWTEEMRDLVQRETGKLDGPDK
Description: A fluorescence polarization assay was used to identify modulators of SIRT3 activity. The same assay may be used to identify modulators of any sirtuin protein. The assay utilizes a peptide substrate based on a fragment of Histone H4, a known sirtuin deacetylation target. The substrate contains a peptide having 14 amino acid residues as follows: Biotin-GASSHSK(Ac)VLK(MR121) (SEQ ID NO: 3) wherein K(Ac) is an acetylated lysine residue. The peptide is labeled with the fluorophore MR121 (excitation 635 nm/emission 680 nm) at the C-terminus and biotin at the N-terminus.
The peptide substrate is exposed to a sirtuin protein in the presence of NAD^+ to allow deacetylation of the substrate and render it sensitive to cleavage by trypsin. Trypsin is then added and the reaction is carried to completion (i.e., the deacetylated substrate is cleaved) releasing the MR121 fragment. Streptavidin is then added to the reaction where it can bind both the uncleaved substrate (i.e., any remaining acetylated substrate) and the non-fluorescent portion of the cleaved peptide substrate (i.e., the biotin containing fragment). The fluorescence polarization signal observed for the full length peptide substrate bound to streptavidin is higher than the fluorescence polarization signal observed for the released MR121 C-terminal fragment. Therefore, the fluorescence polarization obtained is inversely proportional to the level of deacetylation (e.g., the signal is inversely proportional to the activity of the sirtuin protein). Results are read on a microplate fluorescence polarization reader (Molecular Devices Spectramax MD) with appropriate excitation and emission filters.
The fluorescence polarization assays may be conducted as follows: 0.5 μM peptide substrate and 50 μM βNAD^+ is incubated with 2 nM of SIRT3 for 60 minutes at 37° C. in a reaction buffer (25 mM Tris-acetate pH8, 137 mM Na—Ac, 2.7 mM K—Ac, 1 mM Mg—Ac, 0.1% Pluronic F127, 10 mM CaCl2, 1 mM TCEP, 0.025% BSA). Test compounds are solubilized in DMSO and are added to the reaction at 11 concentrations ranging from 0.7 μM to 100 μM. The SIRT3 protein used in the assays corresponded to amino acid residues 102-399 of human SIRT3 with an N-terminal His-tag. The protein was overexpressed in E. coli and purified on a nickel chelate column using standard techniques. After the 60 minute incubation with SIRT3, nicotinamide is added to the reaction to a final concentration of 3 mM to stop the deacetylation reaction and 0.5 μg/mL of trypsin is added to cleave the deacetylated substrate. The reaction is incubated for 30 minutes at 37° C. in the presence of 1 mM streptavidin. Fluorescent polarization is determined at excitation (650 nm) and emissions (680 nm) wavelengths. The level of activity of the sirtuin protein in the presence of the various concentrations of test compound are then determined and may be compared to the level of activity of the sirtuin protein in the absence of the test compound, and/or the level of activity of the sirtuin proteins in the negative control (e.g., level of inhibition) and positive control (e.g., level of activation) described below.
A control for activation of sirtuin activity is conducted using 0.5 μg/mL of sirtuin protein to reach baseline deacetylation of the substrate (e.g., to determine normalized sirtuin activity).

Structure (SMILES) | EC50 (SIRT1) [µM] | EC50 (human SIRT3) [µM] | IC50 (human SIRT3) [µM]
Cc1csc(NC(=O)CSCC(=O)O)c1-c1nc2ccccc2s1 [Compound 5] | < 50 | 101 to 150 | 
Nc1nc2ccc(-c3nc4ccccc4[nH]3)cc2s1 [Compound 14] | 101 to 150 | 101 to 150 | 
COc1ccc(-c2nc3c(C(=O)NC(CC(=O)O)C4CCCCC4)cccn3c2NC(C)(C)C)cc1[N+](=O)[O-] (centres unmarked) [Compound 29] | > 150 | > 150 | 
N#Cc1ccc(-c2nc3c(C(=O)NC(CC(=O)O)C4CCCCC4)cccn3c2NCc2ccccc2)cc1 (centres unmarked) [Compound 32] | 51 to 100 | < 50 | 
CC(=O)Nc1ccc(-c2nc3c(C(=O)NC(CC(=O)O)C4CCCCC4)cccn3c2NCc2ccccc2)cc1 (centres unmarked) [Compound 37] | 51 to 100 | 101 to 150 | 
CC(NC(=O)c1cccn2c(NCC3CCCO3)c(-c3ccc(Cl)cc3)nc12)C(=O)NCCC#N (centres unmarked) [Compound 43] | < 50 | 51 to 100 | 
CC(NC(=O)c1cccn2c(NCC3CCCO3)c(-c3ccc(N(C)C)cc3)nc12)C(=O)NCCC#N (centres unmarked) [Compound 45] | 51 to 100 | > 150 | 
COc1ccc(-c2nc3c(C(=O)NC(CC(=O)O)c4cccc(C)c4)cccn3c2Nc2c(C)cccc2C)cc1[N+](=O)[O-] (centres unmarked) [Compound 67] |  | > 150 | 
COc1cccc(-c2nc3c(C(=O)NC(CC(=O)O)C4CCCCC4)cccn3c2NCc2ccccc2)c1 (centres unmarked) [Compound 69] |  | 51 to 100 | 
Cc1cccc(C)c1Nc1c(-c2ccc(C#N)cc2)nc2c(C(=O)NC(CC(=O)O)C3CCCCC3)cccn12 (centres unmarked) [Compound 70] |  | > 150 | 
CCCCNc1c(-c2ccc(F)cc2)nc2c(C(=O)NC(CC(=O)O)c3cccc([N+](=O)[O-])c3)cccn12 (centres unmarked) [Compound 71] |  | 51 to 100 | 
CCCCNc1c(-c2ccc(C#N)cc2)nc2c(C(=O)NC(CC(=O)O)c3cccc([N+](=O)[O-])c3)cccn12 (centres unmarked) [Compound 72] |  | 51 to 100 | 
COc1ccc(-c2nc3c(C(=O)NC(CC(=O)O)c4cccc([N+](=O)[O-])c4)cccn3c2NCc2ccccc2)cc1[N+](=O)[O-] (centres unmarked) [Compound 73] |  | 51 to 100 | 
Cc1cccc(C)c1Nc1c(-c2ccc(C#N)cc2)nc2c(C(=O)NC(CC(=O)O)c3cccc([N+](=O)[O-])c3)cccn12 (centres unmarked) [Compound 74] |  | > 150 | 
CCCCNc1c(-c2ccc(OC)c([N+](=O)[O-])c2)nc2c(C(=O)NC(C)C(=O)O)cccn12 (centres unmarked) [Compound 75] |  | 51 to 100 | 
COc1ccc(-c2nc3c(C(=O)NC(C)C(=O)O)cccn3c2NCc2ccccc2)cc1[N+](=O)[O-] (centres unmarked) [Compound 76] |  | < 50 | 
CC(C)(C)Nc1c(-c2ccc(F)cc2)nc2c(C(=O)NC(CC(=O)O)C3CCCCC3)cccn12 (centres unmarked) [Compound 78] |  | 101 to 150 | 
O=C(O)CC(NC(=O)c1cccn2c(NCc3ccccc3)c(-c3ccc(F)cc3)nc12)C1CCCCC1 (centres unmarked) [Compound 79] |  | 51 to 100 | 
COc1ccc(-c2nc3cc(C(=O)NC(CC(=O)O)C4CCCCC4)ccn3c2NC2CCCCC2)cc1OC (centres unmarked) [Compound 80] |  | 51 to 100 | 
Cc1ccc(C(CC(=O)O)NC(=O)c2ccn3c(NC4CCCCC4)c(-c4ccc(C#N)cc4)nc3c2)cc1 (centres unmarked) [Compound 81] |  | 51 to 100 | 
Nc1ccc(-c2nc3ccc(-c4nc5ccc(N)cc5[nH]4)cc3[nH]2)cc1 [Compound 83] |  | > 150 | 
Nc1ccc(C(=O)Nc2nc3cc4sc(NC(=O)c5ccc(N)cc5)nc4cc3s2)cc1 [Compound 86] |  |  | 51 to 100
Cc1ccccc1C(=O)N1CCN(C(=O)c2cccn3c(NCc4ccccc4)c(C(C)C)nc23)CC1 [Compound 87] |  |  | 101 to 150
CN(C)c1ccc(-c2nc3ccc(C(=O)NCC(=O)NCC4CC4)cn3c2NC2CCCCC2)cc1 [Compound 88] |  |  | < 50
Cc1cc(C(=O)Nc2ccc(-c3nc4ccc(C(=O)NCCCN5CCCC5=O)cn4c3NC3CCCCC3)cc2)no1 [Compound 89] |  |  | 101 to 150

From US7998974B2, “Fused heterocyclic compounds and their use as sirtuin modulators” (Sirtris Pharmaceuticals, Inc., priority 2005, dated 2011)
